Test results published in patent US12724175B2, “Contact lens with optical prophylaxis” (High Performance Optics, Inc., priority 2021, dated 2026).
Read-outs that look alike come from different tables or passages of the source.

What was measured:
[1] = Solubility studies at 500 ppm in solvent, monomers and simulated formulation
Method: The solubilities of exemplary compounds 8 and 9 were evaluated in various solvent systems in comparison with copper tetraphenylporphyrin (Cu-TPP) as a control.
• 1. Weigh 3 to 4 mg of the Copper porphyrin compound into an 8 mL scintillation vial • 2. In the case of one solvent or monomer, dilute to 500 ppm with the solvent or monomer, add a stir bar, and stir mixture overnight. • 3. In the case of multiple solvents, add the best solvent for the copper porphyrin first, add a stir bar and stir for 1 hour. Add the other solvents and stir overnight. • 4. Evaluate solution miscibility after stirring overnight.

[2] = UV-visible transmittance, molar extinction coefficient of Soret band; format: physicochemical; settings: concentrations 300 to 1000 ppm
Method: ^1H-NMR spectra were recorded on Bruker 600 MHz spectrometer. CD3OD (Methanol-d3) and DMSO-d6 (Dimethyl sulfoxide-d6) were used as solvents. UPLC of porphyrins was acquired on ACQUITY UPLC H-Class PLUS UPLC with Waters PDA detector, using Phenomenex Jupiter® 5 μm C18 300 Å, LC Column (150×2.0 mm). LC-MS of porphyrins was acquired on The Thermo Scientific™ Q Exactive™ HF hybrid quadrupole-Orbitrap mass spectrometer, using Phenomenex Aeris™ 3.6 μm WIDEPORE C4 200 Å, LC Column (50×2.1 mm). UV-vis spectra were obtained on Perkin Elmer Lambda 850 UV-Vis Spectrophotometer.
(§1) Compound 8 also characterized by UV-visible transmittance at concentrations ranging from 300 to 1000 ppm (FIG. 15). Molar extinction coefficients of 490,000-544,000 M-1 cm-1 for Soret band are in agreement with literature values for similar metallated porphyrins (Taniguchi, M.; Lindsey, J. S. Photochemistry and Photobiology, 2018, 94, 290-327).
as §1, with “Compound 9” for “Compound 8”, “(FIG. 16).” for “(FIG. 15).”, “490,000-544,000 M^−1 cm^−1” for “490,000-544,000 M-1 cm-1”

[3] = Stability under simulated photocuring conditions (450 nm LED, photoinitiator); format: physicochemical
Method: (§2) The stabilities of exemplary compounds 8 and 9 were evaluated under various conditions in the presence of initiator and monomer under curing conditions in comparison with copper tetraphenylporphyrin (Cu-TPP) and zinc tetraphenylporphyrin (Zn-TPP) as controls.
Experimental Procedure for Photo-Curing System:
• (A) for Stability Test without Monomers • 1. Parent solution: Dimethylacetamide (DMAC) solutions (200-500 ppm) of corresponding porphyrins, namely ZnTPP (200 ppm), CuTPP (200 ppm), Cu-TBP-Am (500 ppm), and Cu-TBP-MAm (500 ppm) were prepared in amber glass vial. The solutions were allowed to stir at room temperature for about 0.5 hour to provide homogeneous solutions. Photoinitiator (0.6 wt %) was added to each solution (under yellow light), and the solution was stirred for another 1 hour. • 2. Solution “BEFORE” Thermal Treatment & UV-VIS Measurement: The solution was transferred into 100 μm quartz cell and UV-Vis spectra were recorded using Perkin Elmer Lambda 850 UV-Vis Spectrophotometer. The spectrum was regarded as “before”. • 3. Photocuring of Parent Solution: Each quartz cell was exposed to 450 nm LED light with intensity of 55 mW/cm^2 for 30 s. • 4. Solution “AFTER” photocuring & UV-VIS Measurement: UV-Vis spectra of solutions in 100 μm quartz cell exposed to LED light were recorded using Perkin Elmer Lambda 850 UV-Vis Spectrophotometer. The spectrum was regarded as “after”. • 5. % T Calculation: % Loss is expressed as % T increase at the specific wavelength of Soret band for each porphyrin solution. • (B) For Stability Test with Monomers • 1. Parent solution: Cu-TBP-Am and Cu-TBP-MAm were dissolved in DMA (30 wt %), TRIS (30 wt %) and 1-PrOH (40 wt %) in amber glass vial to afford 500 ppm porphyrin solutions. The solutions were allowed to stir at room temperature for about 0.5 hour to provide homogeneous solutions. Photoinitiator (0.6 wt %) was added to each solution (under yellow light), and the solution was stirred for another 1 hour. • 2. Solution “BEFORE” Thermal Treatment & UV-VIS Measurement: The solution was transferred into 100 μm quartz cell and UV-Vis spectra were recorded using Perkin Elmer Lambda 850 UV-Vis Spectrophotometer. The spectrum was regarded as “before”. • 3. Photocuring of Parent Solution: Each quartz cell was exposed to 450 nm LED light with intensity of 55 mW/cm^2 for 30 s. • 4. Solution “AFTER” photocuring & UV-VIS Measurement: UV-Vis spectra of solutions in 100 μm quartz cell exposed to LED light were recorded using Perkin Elmer Lambda 850 UV-Vis Spectrophotometer. The spectrum was regarded as “after”. • 5. % T Calculation: % Loss is expressed as % T increase at the specific wavelength of Soret band for each porphyrin solution. Experimental Procedure for Thermal-Curing System: • (A) for Stability Test without Monomers • 1. Parent solution: Dimethylacetamide (DMAC) solutions (500 ppm) of corresponding porphyrins, namely ZnTPP, CuTPP, Cu-TBP-Am, and Cu-TBP-MAm were prepared in amber glass vial. The solutions were allowed to stir at room temperature for about 0.5 hours to provide homogeneous solutions. Vazo 64 (0.5 wt %) was added to each solution, and the solution was stirred for another 10 minutes. Each solution was bubbled with nitrogen for 5 minutes to remove oxygen. • 2. […] The solution was transferred into 1 cm quartz cell and UV-Vis spectra were recorded using Perkin Elmer Lambda 850 UV-Vis Spectrophotometer. […]

[4] = Stability under simulated thermal curing conditions (Vazo 64, 80° C., 2 hours); format: physicochemical; settings: 500 ppm, Vazo 64 0.5 wt %; for Stability under simulated thermal curing, without monomers: DMAC
Method: as §2
• (A) for Stability Test without Monomers • 1. Parent solution: Dimethylacetamide (DMAC) solutions (200-500 ppm) of corresponding porphyrins, namely ZnTPP (200 ppm), CuTPP (200 ppm), Cu-TBP-Am (500 ppm), and Cu-TBP-MAm (500 ppm) were prepared in amber glass vial. The solutions were allowed to stir at room temperature for about 0.5 hour to provide homogeneous solutions. Photoinitiator (0.6 wt %) was added to each solution (under yellow light), and the solution was stirred for another 1 hour. • 2. Solution “BEFORE” Thermal Treatment & UV-VIS Measurement: The solution was transferred into 100 μm quartz cell and UV-Vis spectra were recorded using Perkin Elmer Lambda 850 UV-Vis Spectrophotometer. The spectrum was regarded as “before”. • 3. […] Solution “AFTER” photocuring & UV-VIS Measurement: UV-Vis spectra of solutions in 100 μm quartz cell exposed to LED light were recorded using Perkin Elmer Lambda 850 UV-Vis Spectrophotometer. The spectrum was regarded as “after”. • 5. % T Calculation: % Loss is expressed as % T increase at the specific wavelength of Soret band for each porphyrin solution. • (B) For Stability Test with Monomers • 1. […] Solution “BEFORE” Thermal Treatment & UV-VIS Measurement: The solution was transferred into 100 μm quartz cell and UV-Vis spectra were recorded using Perkin Elmer Lambda 850 UV-Vis Spectrophotometer. […] Solution “AFTER” photocuring & UV-VIS Measurement: UV-Vis spectra of solutions in 100 μm quartz cell exposed to LED light were recorded using Perkin Elmer Lambda 850 UV-Vis Spectrophotometer. The spectrum was regarded as “after”. • 5. % T Calculation: % Loss is expressed as % T increase at the specific wavelength of Soret band for each porphyrin solution. […] The solution was transferred into 1 cm quartz cell and UV-Vis spectra were recorded using Perkin Elmer Lambda 850 UV-Vis Spectrophotometer. […]

[5] = 500 ppm, 1-Propanol, stirred overnight
[6] = 500 ppm, monomer DMA, stirred overnight
[7] = 500 ppm, monomer HEMA, stirred overnight
[8] = 500 ppm, simulated formulation 1-PrOH/DMA/TRIS (1:1:1)
[9] = 500 ppm, simulated formulation 1-PrOH/DMA/TRIS/Silicone oil (1:1:1:1)
[10] = DMAC, photoinitiator 0.6 wt %, 450 nm LED 55 mW/cm^2 for 30 s

Compound	Solubility [1, 5]	Solubility [1, 6]	Solubility [1, 7]	Solubility [1, 8]	Solubility [1, 9]	Molar extinction coefficients for Soret band [2]	Stability (% T increase at Soret band) under simulated photocuring, with monomers ([3]; DMA/TRIS/1-PrOH, 500 ppm, photoinitiator 0.6 wt %, 450 nm LED 55 mW/cm^2 for 30 s)	Stability (% T increase at Soret band) under simulated photocuring, without monomers [3, 10]	Stability under simulated thermal curing, with monomers ([4]; DMA/TRIS/1-PrOH)	Stability under simulated thermal curing, without monomers [4]	Solubility [1]	Stability (% T increase at Soret band) under simulated photocuring, without monomers [3]
C=CC(=O)NCCC[N+](C)(C)Cc1ccc(/C2=C3\C=CC(=N3)/C(c3ccc(C[N+](C)(C)CCCNC(=O)C=C)cc3)=c3/cc/c4[n]3[Cu][n]3c2ccc3/C(c2ccc(C[N+](C)(C)CCCNC(=O)C=C)cc2)=C2/C=CC(=N2)\C=4c2ccc(C[N+](C)(C)CCCNC(=O)C=C)cc2)cc1 [Compound 9, Cu(II) tetra-(dimethylaminopropylacrylamidophenyl) porphine tetrabromide]	Soluble	Partially	Soluble	Soluble	Partially	490,000-544,000 M^−1 cm^−1	not observed	show % T increase	much better stability	much better stability		
C=C(C)C(=O)NCCC[N+](C)(C)Cc1ccc(/C2=C3\C=CC(=N3)/C(c3ccc(C[N+](C)(C)CCCNC(=O)C(=C)C)cc3)=c3/cc/c4[n]3[Cu][n]3c2ccc3/C(c2ccc(C[N+](C)(C)CCCNC(=O)C(=C)C)cc2)=C2/C=CC(=N2)\C=4c2ccc(C[N+](C)(C)CCCNC(=O)C(=C)C)cc2)cc1 [Compound 8, Cu(II) tetra-(dimethylaminopropylmethacrylamidophenyl) porphine tetrabromide]						490,000-544,000 M^−1 cm^−1					Soluble	show % T increase
C1=Cc2nc1c(-c1ccccc1)c1ccc([n-]1)c(-c1ccccc1)c1nc(c(-c3ccccc3)c3ccc([n-]3)c2-c2ccccc2)C=C1.[Zn+2] [ZnTPP, zinc tetraphenylporphyrin, reference compound]								CuTPP is significantly more stable than ZnTPP		difference is not observed		
copper tetraphenylporphyrin [Cu-TPP, reference compound]	Insoluble	Soluble	Insoluble	Insoluble	Insoluble							significantly more stable than ZnTPP
